For the assay, the system named is cancer cell lines. The assay is described as follows: Anti-cancer activity, CellTiter-Glo luminescence after 72 hours compound treatment. It counts as cell-based. To be noted: cell line not stated, 4-parameter fit inflection point (IC50). How it is done: Compounds to be tested for anti-cancer activity were submitted dry, dissolved to 10 mM stocks in DMSO, and stored protected from light at −80° C. until use. DMSO vehicle control wells, and 3 fold serial dilutions of compounds from 10 mM to 6.2 nM were prepared in 384 well plates. Kinamycin and tamoxifen were also added as controls in this manner.
LN2 aliquots of cancer cells (indicated in the tables of FIGS. 3 and 4) were cultured at YCMD and plated in Corning 3707 TC plates at 400 cells/well initial seeding density in 20 uL of growth medium. Cells were incubated overnight at 37′C in a humidified 5% CO2 incubator, and treated with compounds.
20 nL of compound was dispensed into the assay plates using a 384-well pin tool on the Tecan Aquarius. Final assay compound treatments ranged from 10 uM to 6.2 pM, 0.1% DMSO. […]
For assay readout CellTiter-Glo (Promega) was prepared according to manufacturer's instructions and 20 uL/well was added to assay plates using a MultiDrop. Luminescence was read on an Envision plate reader (Perkin Elmer) with 0.3 second sampling time per well after a 10 min. room temperature incubation in the dark.
Toxic effects have low luminescence signal relative to the vehicle control […]. Raw data (luminescence counts per second) were normalized to percent effect by the formula: […]. […]
A general note: ATP-based viability assays read luminescence as a measure of living cells.

With `CSCCCNC(=O)c1csc(-c2csc(Cn3c(CC[C@H](C)NC(=O)OC(C)(C)C)c4c(cc3=O)C3(CC3)NC4=O)n2)n1` [compound S4], the IC50 (in general, the concentration at which inhibition is half-maximal) came to 11 nM.

`C[C@H](N)CCc1c2c(cc(=O)n1Cc1nc(-c3nc(C(=O)NCCN(C)C)cs3)cs1)C1(CC1)NC2=O` [compound 17a]: the half-maximal inhibitory concentration (IC50) is 35 nM. Against the preceding compound, the IC50 is about 3.2-fold higher.
